Data from paper PMC5587910, “Methionine Sulfoxide Reductase A (MsrA) and Its Function in Ubiquitin-Like Protein Modification in Archaea” (mBio, 2017).

Columns and labels:
HvMsrA (MsrA-StrepII) = biological target: T1, HvMsrA (MsrA-StrepII) (Haloferax volcanii, UniProt D4GQQ9); experiment: MSO-peptide reductase assay, HPLC of dabsyl-Met; assay type: biochemical
T1 construct: gene msrA1; C-terminal StrepII tag; expressed in E. coli Rosetta (DE3), Strep-Tactin and Superdex 75 purified; 21 kDa
T1 sequence (D4GQQ9 1-189): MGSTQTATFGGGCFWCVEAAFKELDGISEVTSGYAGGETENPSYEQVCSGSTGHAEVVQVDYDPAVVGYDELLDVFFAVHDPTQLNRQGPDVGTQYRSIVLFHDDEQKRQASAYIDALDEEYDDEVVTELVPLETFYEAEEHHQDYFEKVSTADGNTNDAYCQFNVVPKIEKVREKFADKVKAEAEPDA

HvMsrB (MsrB-StrepII) = biological target: T2, HvMsrB (MsrB-StrepII) (Haloferax volcanii, UniProt D4GVV0); experiment: MSO-peptide reductase assay of cell lysate, HPLC of dabsyl-Met; assay type: biochemical; conditions: 400 µg cell extract, 200 µM dabsyl-MSO, 20 mM DTT, 25 mM Tris-Cl pH 7.5, 37°C
T2 construct: StrepII-tagged, expressed from plasmid in Hfx. volcanii deletion strains; cell lysate
T2 sequence (D4GVV0 entry or part of it): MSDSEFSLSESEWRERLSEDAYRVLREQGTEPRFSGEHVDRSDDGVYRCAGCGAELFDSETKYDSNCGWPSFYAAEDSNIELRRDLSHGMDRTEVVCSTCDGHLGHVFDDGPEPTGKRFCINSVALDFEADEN

| SMILES | MSO-peptide reductase assay, HPLC of dabsyl-Met (HvMsrA (MsrA-StrepII); inhibitor, 0 to 20 mM MSO, dabsyl-MSO substrate, DTT, Tris-Cl pH 7.5, NaCl 0.2 to 2 M, 37°C, probably competing substrate) | MSO-peptide reductase assay, HPLC of dabsyl-Met (HvMsrA (MsrA-StrepII); 200 µM dabsyl-MSO, 20 mM DTT, 25 mM Tris-Cl pH 7.5, 37°C, 30 min) | MSO-peptide reductase assay of cell lysate, HPLC of dabsyl-Met (HvMsrB (MsrB-StrepII)) |
| --- | --- | --- | --- |
| C[S+]([O-])CC[C@H](N)C(=O)O (stereo partly drawn) [MSO] | DMSO and MSO inhibited the MSO-peptide reductase activity of HvMsrA in a dose-dependent manner |  |  |
| CN(C)c1ccc(N=Nc2ccc(S(=O)(=O)N[C@@H](CC[S+](C)[O-])C(=O)O)cc2)cc1 (stereo partly drawn) [dabsyl-MSO] |  | HvMsrA was found to catalyze the reduction of the MSO peptide | HvMsrB was also found to catalyze MSO-peptide reductase activity |
